Patent US20100292306A1, “Compositions And Methods For The Treatment Of Muscular Dystrophy” (priority 2005, published 2010)
“Also recorded” adds a separate entry of the source.

Columns and labels:
Assay type in all cases: in vivo, mdx mice
[1] = tested on: mdx triangularis sterni (TS) muscle; assay: Percent fibers and percent striated fibers in photographed areas of fixed mdx TS muscle
Description: To evaluate the effect of various chemical agents on animal models of MD, experimental male and female mdx mice may be injected intraperitoneally (ip) with various chemicals at different dosage. In the case of pyrrolidine dithiocarbamate (PDTC) (50-75 mg/kg of PDTC (obtained from Sigma) may be dissolved in a saline solution (HEPES-Ringer; in mM: 147.5 NaCl, 5 KCl, 2 CaCl2, 11 glucose, 5 HEPES, pH 7.35) for injection. […] The mice may be sacrificed after 1-24 months from the beginning of treatment to determine the effect of the treatment with the chemicals.
In one embodiment, the treatment effect may be evaluated by comparing the morphological results between 3 regions of the triangularis sterni (TS); the caudal third of the muscle extending toward the xiphoid process, the middle third, and the cephalad third of the muscle. This procedure is adopted because there are obvious differences between these regions in the extent of pathology and the muscle thickness in the mdx TS (not clearly seen in the nondystrophic TS) even when examining the muscle at low power (e.g., 4×). Results from animals that die during the experimental time frame (both saline injected and PDTC treated) are typically excluded from the study.
Morphological assessment of total fiber density and density of striated fibers may be conducted as described in the following text. Immediately after completing the resting potential measurements, the minimally stretched TS muscle preparations attached to the dissecting hooks may be fixed overnight in 2% glutaraldehyde (0.1 M cacodylate buffer) and subsequently washed several times in 0.1 M cacodylate. Before removing the preparation from the recording chamber, microphotographs of approximately 24 randomly sampled areas may be obtained at 200-300× magnification in caudal, middle, and cephalad regions of the TS. In the initial studies, a smaller number of photographs may be obtained over the middle portion of the TS muscle.
Each preparation may be illuminated using bright-field optics to minimize depth of focus issues in visualizing muscle fiber striations. Since the mdx TS muscle is a flat and thin preparation, all the fibers in each area are roughly within the same focal plane. However, small variations in depth of focus may produce small variations in the appearance of striated fibers. Such effects may be minimized by routinely adjusting the plane of focus to maximize the number of striated fibers in each photographed area. The density of muscle fibers and the density of striated fibers may then be evaluated for each sampled area by drawing a line orthogonal to the principal axis of the TS muscle fibers across the entire viewing area of each photograph. The percentage of the length of this line that covered muscle fibers and the percentage of this line that covered striated muscle fibers (defined as having striations over at least 50% of the observed length) may be used to determine the percentage of muscle fibers and striated muscle fibers, respectively, for each photographed muscle area. Control experiments using these procedures on adult nondystrophic TS muscles (N=37 areas, 2 TS muscles at 19 and 27 months) may yield average values of 99.1±0.5 (SE) percent fibers and 96.7±1.2 percent striated fibers with no regional differences across the caudal, middle, and cephalad thirds of the muscle (FIG. 3).
In freshly isolated preparations of mdx TS muscle, hypercontraction and myofibrillar disorganization are expressed as a decrease in the appearance of striated muscle fibers (See e.g., FIG. 2A) and fiber loss and fibrosis appear as a decrease in the number of fibers in individual areas of the TS (See e.g., FIG. 2B; cf. Carlson et al., 2003 and Cullen and Fulthorpe, 1975). […]

[2] = tested on: mdx triangularis sterni (TS) muscle; assay: Histological cross sections of mdx TS muscle (fiber number, diameter, density, myonuclei, centronucleation)
From the text: To further examine the morphological effects of chronic treatment with inhibitors of the NFκB pathway, the fixed TS preparations used in these investigations on mature mdx mice (Series 2 through 4) were sectioned and stained with hematoxylin and eosin using standard histological procedures (FIG. 7A, 7B, 7C). […] PDTC treatment produced a significant (p<0.001) reduction in diameter in the caudal region and a significant (p<0.001) increase in diameter in the middle region in comparison to corresponding values from the vehicle-injected mdx mice (FIG. 9).
To determine the density of muscle fibers in the mdx TS muscle, individual sections representing all of the fibers within each TS muscle were evaluated by determining the average number of fiber cross sections per unit length of the TS muscle where the length is defined along the axis orthogonal to the principal fiber axis. This procedure was performed for all of the available TS muscles initially used in the Series 2 and 3 PDTC investigations.
Determination of the total number of myonuclei across all regions of the mature nondystrophic, mdx-vehicle, and mdx-PDTC treated TS muscles in conjunction with determination of the total number of fiber cross sections in the same preparations provided an immediate measure of the number of myonuclei per sectioned fiber (FIG. 12).
These morphological results provide direct evidence that inhibitors of the NFκB pathway may have beneficial effects in treating both young and mature dystrophic preparations.

[3] = tested on: mdx TS muscle fibers; assay: Intracellular recording of resting membrane potential in TS muscle fibers after chronic treatment
[4] = tested on: NFκB; assay: Trans AM assays of NFκB in gastrocnemius muscle preparations; settings: chronic PDTC
From the text: The Trans AM assay and corresponding electrophoretic mobility shift assays (EMSA), along with Western Blot analyses of IκB-α (FIG. 1) and total cellular NFκB, are useful for screening compounds that inhibit the NFκB pathway in dystrophic skeletal muscle and identifying new compounds that have corresponding beneficial effects in treating dystrophic subjects.

[5] = Series 2 and 3, vs age-matched vehicle
[6] = mature mdx, vs vehicle-injected, p<0.001
[7] = Series 3 aged mdx mice, P<0.001 vs saline littermates

S=C(S)N1CCCC1 [PDTC, pyrrolidine dithiocarbamate]
density of fibers in the TS ([1]; 50 mg/kg ip 48-76 days, Series 2 (11.5-18.5 months) and Series 3 (21.5-22 months)): increases
increase in the percentage of striated muscle fibers ([1]; Series 1, vs untreated, P<0.01): 3 fold
striated fibers in photographed area ([1]; Series 1: 50-75 mg/kg ip daily 27-30 days, 8.5-9 months at sacrifice, middle region, FIG. 2C): approximately 82%
average percent fibers ([1]; Series 1: 50-75 mg/kg ip daily 27-30 days, same in untreated): about 80%
density of striated fibers ([1]; Series 1: 50-75 mg/kg ip, 27-30 days, 8.5-9 months at sacrifice): increases
increase in the percent of fibers ([1]; Series 2: 50 mg/kg daily, 11.5-18.5 months at sacrifice, middle third, P<0.01 vs saline): 1.7 fold
overall percent of fibers across all regions ([1]; Series 2, P<0.05 vs saline): significant increase
increased percent of striated fibers ([1]; Series 2, middle region, P<0.01 vs saline): 8.4 fold
increase in the percent of striated fibers ([1]; Series 3 (22 months), caudal, middle and overall total of sampled areas): 22- to 68 fold
increases in the density of muscle fibers ([1]; Series 3: aged mdx mice (22 months), 50 mg/kg daily, across all regions, P<0.01 or P<0.001): 4.1- to 11.1 fold
overall percent fibers ([1]; Series 4: individual mdx mouse, 50 mg/kg on 238 of 258 days, 13.5 months of age, N=25): 82.2±2.6%
overall percent striated fibers ([1]; Series 4: individual mdx mouse, 50 mg/kg on 238 of 258 days, 13.5 months of age, N=25 areas): 40.4±2.6%
effect of treatment on the percent of striated fibers ([1]; Series 4: longer administration beginning in 5 month mdx mice, middle and cephalad regions, P<0.001): significant effect
density of striated TS fibers ([1]; daily PDTC, Series 2 and Series 3): increases
fiber number, caudal region [2, 5]: substantial increases
fiber number, cephalad region [2, 5]: an increase
fiber number, middle region [2, 5]: no change
number of fibers per unit length ([2]; Series 2 and 3, cephalad and caudal regions, p<0.05): increased
number of myonuclei per fiber ([2]; Series 2 and 3 mature mdx, vs age matched vehicle, p<0.001): increase
fiber number or density, middle region ([2]; chronic PDTC, mature mdx): without altering
density of fibers / loss of muscle fibers ([2]; individual mdx mouse, 50 mg/kg on 238 of 258 days from 5 to 13.5 months, vs 14.6 month vehicle treated, 50 mg/kg): substantial improvements; also recorded: decreases the loss
percent centronucleation ([2]; mature mdx mice, Series 2 and 3, p<0.001): reduced; also recorded: significantly decreased
fiber diameter, caudal region [2, 6]: reduction
fiber diameter, middle region [2, 6]: increase
resting potential of TS fibers ([3]; 50 mg/kg ip 48-76 days, mature mdx mice Series 2 and Series 3): significantly increases
resting potential ([3]; Series 1 daily PDTC, middle and caudal regions, relative to nondystrophic levels): completely restored; also recorded: restores
increase in resting potential, caudal region ([3]; Series 2 daily PDTC): not
resting potential, middle region ([3]; Series 2 daily PDTC, saline −35.8 mV, P<0.05): −45.4 mV
average resting potential, middle region ([3]; Series 3 aged mdx mice, N=9 fibers, 2 mice): −32.2±6.5 mV
resting potential, caudal region [3, 7]: approximately −45 mV
resting potential, overall (middle, caudal, cephalad combined) [3, 7]: ~−40 mV
overall resting potential ([3]; Series 4: administration initiated at 5 months, read at 6.5-13.5 months, N=64 fibers, 3 TS muscles): -49.3 ± 1.4 mV
average resting potential ([3]; Series 4: mdx mouse treated between 5 and 13.5 months, N=22 fibers): −53.3±2.0 mV
proportion of total cellular NFκB in the cytosolic fraction [4]: increases
proportion of nuclear NFκB ([4]; adult mdx): reduces
total cellular NFκB ([4]; adult mdx): reduces
